Measured values: patent US20260048036A1, “CRYSTALLINE FORMS OF A GLUCOSYLCERAMIDE SYNTHASE INHIBITOR AND USES THEREOF” (ACELINK THERAPEUTICS, INC., priority 2022, published 2026)
Where a chain is given by its changes, count along the chain named. “And” between values parts separate entries of the source, which are not always exact repeats. Equal values may be shown once.

Tests used:
[1] = Hygroscopicity by DVS at 25° C.; type: physicochemical; settings: for water uptake increased from 40% RH to 90% RH: DVS
[2] = Solid state stability, 1 week (HPLC purity, color, XRPD); settings: for Bulk (XRPD) / Purity, Bulk (HPLC): Solid state, 1 week; for Purity, Bulk (HPLC): initial purity 99.8%
[3] = Solubility at 37° C. in pH buffers and bio-relevant media
[4] = molecular target: T1, Glucosylceramide synthase (GCS) (Canis lupus familiaris, UniProt A0A8I3MXG6); assay: GCS enzymatic assay with MDCK cell lysate; type: biochemical, canine
T1 construct: The MDCK, K-562, and L6 cell lines all endogenously express GCS enzyme; host or cells: MDCK (canine kidney) cell lysate
T1 sequence (A0A8I3MXG6 1-394): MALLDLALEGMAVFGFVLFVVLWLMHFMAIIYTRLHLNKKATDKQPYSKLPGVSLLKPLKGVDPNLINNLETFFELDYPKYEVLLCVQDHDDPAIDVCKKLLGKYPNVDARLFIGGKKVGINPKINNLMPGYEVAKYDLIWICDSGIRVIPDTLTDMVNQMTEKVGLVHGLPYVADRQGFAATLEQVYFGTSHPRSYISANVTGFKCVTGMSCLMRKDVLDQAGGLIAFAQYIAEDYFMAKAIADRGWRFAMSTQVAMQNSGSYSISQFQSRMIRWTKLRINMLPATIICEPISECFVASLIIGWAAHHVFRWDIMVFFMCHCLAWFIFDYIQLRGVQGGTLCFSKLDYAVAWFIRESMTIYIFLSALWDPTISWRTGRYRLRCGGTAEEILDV
Excerpt: (§1) The reaction product, C6-NBD-glucosylceramide, could then be detected and quantified by LC-MS/MS. The inventors used this method to test and validate the effect of various GCS inhibitors on GCS enzyme activity from different species.
(§2) The GCS enzyme activity was detected by using the fluorescent substrate, C6-NBD-ceramide, and monitoring the formation of the fluorescent reaction product, C6-NBD-glucosylceramide. First, the inventors used cell lysate derived from a canine kidney cell line (MDCK, ATCC Cat #CCL-34™) as the source of GCS and tested the inhibitory activity of several control and test compounds.
(§3) GCS activity was evaluated using a GCS enzyme assay derived from MDCK or L6 cell lysates.
(§4) MDCK or L6 cell lysates were prepared using M-PER in the presence of a protease inhibitor cocktail. Each 100 mm dish (100% confluent) was lysed with 250 μl of M-PER containing protease inhibitors. Protein concentration was determined using Pierce BCA protein assay kit.
The final concentration of DMSO was 0.1% in both compound treated and DMSO only treated samples. Each individual reaction was terminated with 11 volumes of methanol:acetonitrile (6:5; containing 200 ng/ml Tolbutamide as internal control). After sufficient mixing, reactions were centrifuged at 2000 rpm for 10 mins, supernatant was injected into the LC-MS/MS for analysis.
(§5) The quantitative analysis of C6-NBD-glucosylceramide was performed on a Shimadzu ultra-fast liquid chromatography coupled with API 4000 mass spectrometer. Analyst 1.5 software packages were used to control the LC-MS/MS system, as well as for data acquisition and processing.
(§6) The C6-NBD-glucosylceramide reading was normalized first by dividing the peak area of C6-NBD-glucosylceramide with the peak area of the internal standard, and then the amount was calculated according to the standard curve generated in the same assay run. For the cell based assay results, the amount of C6-NBD-glucosylceramide was also normalized by the protein concentration of the cell samples.
IC50 values were generated from sigmoidal dose-response (variable slope) curves with GraphPad Prism software (GraphPad Software, Inc., San Diego, CA) using the percent inhibition of C6-NBD-glucosylceramide accumulation relative to DMSO control.

[5] = molecular target: T2, Glucosylceramide synthase (GCS) (Rattus norvegicus, UniProt Q9R0E0); assay: GCS enzymatic assay with L6 cell lysate; type: biochemical; settings: 1 μM, N = 1, N = 2
T2 construct: The MDCK, K-562, and L6 cell lines all endogenously express GCS enzyme; host or cells: L6 rat skeletal muscle cell lysate
T2 sequence (Q9R0E0 1-394): T1 sequence (A0A8I3MXG6 1-394) with L8Q, V13L, A29S, D96E, G131A, K164R, R249K, A251S, T377A
Excerpt: as §1, with “In this study, the inventors developed a reliable method to monitor GCS catalytic activity using the fluorescent substrate, C6-NBD-ceramide. The reaction” for “The reaction”
The MDCK, K-562, and L6 cell lines all endogenously express GCS enzyme and were used to test the effect of various GCS inhibitors on enzyme originating from different species. The GCS enzyme activity was detected by using the fluorescent substrate, C6-NBD-ceramide, and monitoring the formation of the fluorescent reaction product, C6-NBD-glucosylceramide. First, the inventors used cell lysate derived from a canine kidney cell line (MDCK, ATCC Cat #CCL-34™) as the source of GCS and tested the inhibitory activity of several control and test compounds. The inventors then used the human leukemia K-562 cell line (ATCC Cat #[…]) to test the effect of these GCS inhibitors on intact living cells. Finally, a cell lysate derived from a rat skeletal muscle cell line, L6 (ATCC Cat #[…]), was used to test the effect of these GCS inhibitors on rodent GCS enzyme.
as §3, §4
Sixty micrograms of MDCK lysate was incubated with various concentrations of compounds (0.00001 μM-1 μM) in 100 mM Tris buffer (pH 7.5) containing 10 mM MgCl2, 1 mM dithiothreitol, 1 mM EGTA, 2 mM NAD, 100 μM UDP-glucose, 10 μM C6-NBD-ceramide with 35 μM dioleoylphosphatidylcholine/5 μM sulfatide in a final reaction volume of 100 μl at 37° C. for 1 hour. The final concentration of DMSO was 0.1% in both compound treated and DMSO only treated samples. Each individual reaction was terminated with 11 volumes of methanol:acetonitrile (6:5; containing 200 ng/ml Tolbutamide as internal control). After sufficient mixing, reactions were centrifuged at 2000 rpm for 10 mins, supernatant was injected into the LC-MS/MS for analysis.
For the assay with L6 cell lysate, different amounts of L6 cell lysate were used.
as §5, §6
To confirm the inhibitory activity of test compounds on GCS from different species, cells from rat were used. First, the presence of GCS activity was verified using various amounts of L6 cell lysate (FIG. 34, Table 26).

[6] = molecular target: T3, Glucosylceramide synthase (GCS) (Homo sapiens, UniProt Q16739); assay: GCS cell-based assay with live K-562 cells; settings: C6-NBD-glucosylceramide by LC-MS/MS
T3 construct: The MDCK, K-562, and L6 cell lines all endogenously express GCS enzyme; host or cells: K-562 human leukemia cells, live
T3 sequence (Q16739 1-394): T1 sequence (A0A8I3MXG6 1-394) with V20L, S196Y
Excerpt: as §1, §2, §5
as §6, with “samples. […]” for “samples.”

[7] = 1 μM, 60 μg MDCK lysate/reaction, N = 1, N = 2

O=C(N[C@H](CN1CCCC1)[C@H](O)c1ccc(OC2CC2)c(Cl)c1)/C(=N/O)c1ccc2cc(Cl)ccc2c1.O=C(O)C[C@H](O)C(=O)O
XRPD after DVS test [1]: No form change
hygroscopicity (DVS) [1]: slightly hygroscopic
Desorp. (DVS) ([1]; 0% RH): 0.17%
Sorp. (water uptake by DVS) ([1]; 0% RH): 0.17%
Desorp. (DVS) ([1]; 10% RH): 0.22%
Sorp. (water uptake by DVS) ([1]; 10% RH): 0.22%
Desorp. (DVS) ([1]; 20% RH): 0.26%
Sorp. (water uptake by DVS) ([1]; 20% RH): 0.26%
Desorp. (DVS) ([1]; 30% RH): 0.30%
Sorp. (water uptake by DVS) ([1]; 30% RH): 0.30%
Desorp. (DVS) ([1]; 40% RH): 0.33%
Sorp. (water uptake by DVS) ([1]; 40% RH): 0.33%
Sorp. (water uptake by DVS) ([1]; 50% RH): 0.36%
Sorp. (water uptake by DVS) ([1]; 60% RH): 0.40%
Sorp. (water uptake by DVS) ([1]; 70% RH): 0.48%
Sorp. (water uptake by DVS) ([1]; 80% RH): 0.56%
Sorp. (water uptake by DVS) ([1]; 90% RH): 0.92%
water uptake increased from 40% RH to 90% RH [1]: about 0.59%
chemical and physical stability ([2]; 25° C./92% RH open container, 40° C./75% RH open container, 60° C. tight container, one week): chemically and physically stable
Bulk (XRPD) ([2]; 25° C./92% RH, open container): No form change
Purity, Bulk (HPLC) ([2]; 25° C./92% RH, open container): 99.8%
Bulk (XRPD) ([2]; 40° C./75% RH, open container): No form change
Purity, Bulk (HPLC) ([2]; 40° C./75% RH, open container): 99.8%
Bulk (XRPD) ([2]; 60° C., tight container): No form change
Purity, Bulk (HPLC) ([2]; 60° C., tight container): 99.8%
higher solubility than that of the free form Crystalline Form A of Compound 1 ([3]; pH 4.5 buffer, 37° C.): about 3 folds

O=C(N[C@H](CN1CCCC1)[C@H](O)c1ccc(OC2CC2)c(Cl)c1)/C(=N/O)c1ccc2cc(Cl)ccc2c1.O=C(O)C(O)C(O)C(=O)O
XRPD after DVS test [1]: No form change
hygroscopicity (DVS) [1]: slightly hygroscopic
Desorp. (DVS) ([1]; 0% RH): 0.00%
Sorp. (water uptake by DVS) ([1]; 0% RH): 0.00%
Desorp. (DVS) ([1]; 10% RH): 0.07%
Sorp. (water uptake by DVS) ([1]; 10% RH): 0.04%
Desorp. (DVS) ([1]; 20% RH): 0.12%
Sorp. (water uptake by DVS) ([1]; 20% RH): 0.09%
Desorp. (DVS) ([1]; 30% RH): 0.18%
Sorp. (water uptake by DVS) ([1]; 30% RH): 0.14%
Desorp. (DVS) ([1]; 40% RH): 0.22%
Sorp. (water uptake by DVS) ([1]; 40% RH): 0.18%
Sorp. (water uptake by DVS) ([1]; 50% RH): 0.25%
Sorp. (water uptake by DVS) ([1]; 60% RH): 0.28%
Sorp. (water uptake by DVS) ([1]; 70% RH): 0.35%
Sorp. (water uptake by DVS) ([1]; 80% RH): 0.42%
Sorp. (water uptake by DVS) ([1]; 90% RH): 0.57%
water uptake increased from 40% RH to 90% RH [1]: about 0.39%
Bulk (XRPD) ([2]; 25° C./92% RH, open container): No form change
Purity, Bulk (HPLC) ([2]; 25° C./92% RH, open container): 99.8%
Bulk (XRPD) ([2]; 40° C./75% RH, open container): No form change
Purity, Bulk (HPLC) ([2]; 40° C./75% RH, open container): 99.8%
Bulk (XRPD) ([2]; 60° C., tight container): No form change
Purity, Bulk (HPLC) ([2]; 60° C., tight container): 99.8%

O=C(N[C@H](CN1CCCC1)[C@H](O)c1ccc(OC2CC2)c(Cl)c1)/C(=N/O)c1ccc2cc(Cl)ccc2c1 [Compound 1, (E)-N-((1R,2R)-1-(3-chloro-4-cyclopropoxyphenyl)-1-hydroxy-3-(pyrrolidin-1-yl)propan-2-yl)-2-(6-chloronaphthalen-2-yl)-2-(hydroxyimino)acetamide]
pH dependence of solubility ([3]; […]): typical pH dependent solubility

CCCCCCCC(=O)N[C@H](CN1CCCC1)[C@H](O)c1ccc2c(c1)OCCO2 [Eliglustat, reference compound]
C6-NBD-Ceramide (Normalized to internal control) [4, 7]: 4.68 and 4.99
C6-NBD-Glucosylceramide Concentration [4, 7]: 49.8 nM and 59.3 nM
Inhibition [4, 7]: 94.01%
inhibition at 1 µM [4, 7]: 95%
IC50 ([4]; MDCK cell lysate as source of GCS, C6-NBD-glucosylceramide by LC-MS/MS): 52.2 nM
C6-NBD-Ceramide (Normalized to internal control) ([5]; 30 μg L6 lysate/reaction): 5.98 and 6.37
C6-NBD-Glucosylceramide Concentration ([5]; 30 μg L6 lysate/reaction): 31.2 nM and 51.0 nM
Inhibition ([5]; 30 μg L6 lysate/reaction): 92.48%
inhibition at 1 µM ([5]; 30 μg L6 lysate/reaction): 95.4%
C6-NBD-Ceramide (Normalized to internal control) ([5]; 60 μg L6 lysate/reaction): 6.47 and 5.46
C6-NBD-Glucosylceramide Concentration ([5]; 60 μg L6 lysate/reaction): 50.2 nM and 44.1 nM
Inhibition ([5]; 60 μg L6 lysate/reaction): 96.04%
inhibition at 1 µM ([5]; 60 μg L6 lysate/reaction): 95.5%
C6-NBD-Ceramide (Normalized to internal control) ([5]; 120 μg L6 lysate/reaction): 5.82 and 6.23
C6-NBD-Glucosylceramide Concentration ([5]; 120 μg L6 lysate/reaction): 48.4 nM and 57.9 nM
Inhibition ([5]; 120 μg L6 lysate/reaction): 95.77%
inhibition at 1 µM ([5]; 120 μg L6 lysate/reaction): 96.5%
C6-NBD-Ceramide (Normalized to internal control) ([5]; 180 μg L6 lysate/reaction): 5.60 and 5.41
C6-NBD-Glucosylceramide Concentration ([5]; 180 μg L6 lysate/reaction): 63.6 nM and 63.3 nM
Inhibition ([5]; 180 μg L6 lysate/reaction): 95.22%
inhibition at 1 µM ([5]; 180 μg L6 lysate/reaction): 95.2%
C6-NBD-Ceramide (Normalized to internal control) ([5]; 240 μg L6 lysate/reaction): 4.96 and 5.12
C6-NBD-Glucosylceramide Concentration ([5]; 240 μg L6 lysate/reaction): 56.2 nM and 57.7 nM
Inhibition ([5]; 240 μg L6 lysate/reaction): 95.21%
inhibition at 1 µM ([5]; 240 μg L6 lysate/reaction): 95.3%

O=C(N[C@H](CN1CCCC1)[C@H](O)c1ccc(OC2CC2)c(Cl)c1)/C(=N\O)c1ccc2cc(Cl)ccc2c1 [Geometric isomer of Compound 1]
IC50 [6]: 14.8 nM
